Read-outs that look alike come from different tables or passages of the source. Blank lines part the entries; values can stand above or below the compound they belong to. Where a SMILES comes first, the peptide text is derived from it. [ ]: non-standard residue; d: D form. Aib = CC(C)(N)C(=O)O
Tests used:
human GLP-1 receptor = human GLP-1 receptor (Homo sapiens, UniProt P43220); test: Functional GLP-1 receptor assay, in vitro potency (CRE luciferase; whole cells); assay type: cell-based; conditions: BHK cells expressing human GLP-1 receptor
Chain of human GLP-1 receptor (P43220 24-463): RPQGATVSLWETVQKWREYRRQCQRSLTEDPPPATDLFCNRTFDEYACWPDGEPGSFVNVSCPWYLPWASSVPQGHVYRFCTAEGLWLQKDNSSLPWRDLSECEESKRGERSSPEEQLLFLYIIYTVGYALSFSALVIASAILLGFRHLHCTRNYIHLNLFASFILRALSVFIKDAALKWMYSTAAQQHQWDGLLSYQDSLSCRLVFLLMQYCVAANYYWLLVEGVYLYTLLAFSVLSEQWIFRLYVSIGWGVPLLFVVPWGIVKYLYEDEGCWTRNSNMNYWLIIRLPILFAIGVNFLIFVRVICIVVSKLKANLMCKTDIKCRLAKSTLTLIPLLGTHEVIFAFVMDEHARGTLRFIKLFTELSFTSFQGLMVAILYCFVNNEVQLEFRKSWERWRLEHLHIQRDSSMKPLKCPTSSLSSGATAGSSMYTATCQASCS

[1] = tested on: Mouse monocyte/macrophage cell line, RAW 264.7; test: Cholesterol efflux assay (3H-cholesterol, macrophage cell line); assay type: cell-based; conditions: RAW 264.7, 4 hrs incubation, 0.1% human serum albumin; for 4 h Cholesterol Efflux Emax: ABCA1-mediated efflux
[2] = GLP1R CRE luc 1% HSA EC50 Mean Value, 1% HSA
[3] = 0% HSA, read-out: GLP1R CRE luc 0% HSA EC50 Mean Value

Compound: CC[C@H](C)[C@H](NC(=O)[C@H](Cc1ccccc1)NC(=O)[C@H](CCC(=O)O)NC(=O)[C@H](CCCCN)NC(=O)[C@@H](NC(=O)[C@H](C)NC(=O)[C@H](CCC(=O)O)NC(=O)[C@H](CCC(=O)O)NC(=O)[C@H](CCC(=O)O)NC(=O)[C@H](CC(C)C)NC(=O)[C@H](Cc1ccc(O)cc1)NC(=O)[C@H](CO)NC(=O)[C@H](CO)NC(=O)[C@@H](NC(=O)[C@H](CC(=O)O)NC(=O)[C@H](CO)NC(=O)[C@@H](NC(=O)[C@H](Cc1ccccc1)NC(=O)[C@@H](NC(=O)CNC(=O)[C@H](CCC(=O)O)NC(=O)C(C)(C)NC(=O)[C@@H](N)Cc1c[nH]cn1)[C@@H](C)O)[C@@H](C)O)C(C)C)C(C)C)C(=O)N[C@@H](C)C(=O)N[C@@H](Cc1c[nH]c2ccccc12)C(=O)N[C@@H](CC(C)C)C(=O)N[C@H](C(=O)N[C@@H](CCC(=O)O)C(=O)N[C@@H](CCCCN)C(=O)N[C@H](C(=O)N[C@@H](CCCCN)C(=O)N[C@@H](CCC(=O)O)C(=O)N[C@@H](Cc1ccccc1)C(N)=O)C(C)C)C(C)C [Compound 134, [Aib8,Glu22,Glu23,Val25,Glu34,Lys35,Val36,Lys37]-GLP-1-(7-37)-peptidyl-Glu-Phe amide] (H-H[Aib]EGTFTSDVSSYLEEEAVKEFIAWLVEKVKEF-NH2)
EC50 (human GLP-1 receptor; [3]): 0.029 nM
EC50 (human GLP-1 receptor; [2]): 0.012 nM
4 h Cholesterol Efflux Emax [1]: 134%

Compound: CC[C@H](C)[C@H](NC(=O)[C@H](Cc1ccccc1)NC(=O)[C@H](CCC(=O)O)NC(=O)[C@H](CCCNC(=N)N)NC(=O)[C@@H](NC(=O)[C@H](C)NC(=O)[C@H](CCC(=O)O)NC(=O)CNC(=O)[C@H](CCC(=O)O)NC(=O)[C@H](CC(C)C)NC(=O)[C@H](Cc1ccc(O)cc1)NC(=O)[C@H](CO)NC(=O)[C@H](CO)NC(=O)[C@@H](NC(=O)[C@H](CC(=O)O)NC(=O)[C@H](CO)NC(=O)[C@@H](NC(=O)[C@H](Cc1ccccc1)NC(=O)[C@@H](NC(=O)CNC(=O)[C@H](CCC(=O)O)NC(=O)C(C)(C)NC(=O)[C@@H](N)Cc1c[nH]cn1)[C@@H](C)O)[C@@H](C)O)C(C)C)C(C)C)C(=O)N[C@@H](C)C(=O)N[C@@H](Cc1c[nH]c2ccccc12)C(=O)N[C@@H](CC(C)C)C(=O)N[C@H](C(=O)N[C@@H](CCC(=O)O)C(=O)N[C@@H](CCCNC(=N)N)C(=O)N[C@H](C(=O)N[C@@H](CCCNC(=N)N)C(=O)N[C@@H](CCC(=O)O)C(=O)N[C@@H](Cc1ccccc1)C(=O)N[C@@H](CC(C)C)C(=O)N[C@@H](CCCCN)C(N)=O)C(C)C)C(C)C [Compound 91] (H-H[Aib]EGTFTSDVSSYLEGEAVREFIAWLVERVREFLK-NH2)
EC50 (human GLP-1 receptor; [2]): 0.118 nM
4 h Cholesterol Efflux Emax [1]: 103%

Compound: CC[C@H](C)[C@H](NC(=O)[C@H](Cc1ccccc1)NC(=O)[C@H](CCC(=O)O)NC(=O)[C@H](CCCCN)NC(=O)[C@H](C)NC(=O)[C@H](C)NC(=O)[C@H](CCC(N)=O)NC(=O)[C@H](CCC(=O)O)NC(=O)[C@H](CCC(=O)O)NC(=O)[C@H](CC(C)C)NC(=O)[C@H](Cc1ccc(O)cc1)NC(=O)[C@H](CCCCN)NC(=O)[C@H](CO)NC(=O)[C@H](Cc1ccc(O)cc1)NC(=O)[C@H](CC(=O)O)NC(=O)[C@H](CO)NC(=O)[C@@H](NC(=O)[C@H](Cc1ccccc1)NC(=O)[C@@H](NC(=O)CNC(=O)[C@H](CCC(N)=O)NC(=O)[C@H](CO)NC(=O)[C@@H](N)Cc1c[nH]cn1)[C@@H](C)O)[C@@H](C)O)C(=O)N[C@@H](C)C(=O)N[C@@H](Cc1c[nH]c2ccccc12)C(=O)N[C@@H](CC(C)C)C(=O)N[C@@H](CC(C)C)C(=O)N[C@@H](CCC(=O)O)C(=O)N[C@@H](CCCCN)C(=O)NC(C)(C)C(=O)N[C@@H](CCCCN)C(=O)N[C@@H](CCC(=O)O)C(=O)N[C@@H](Cc1ccccc1)C(=O)N[C@@H](CC(C)C)C(N)=O [Compound 56] (H-HSQGTFTSDYSKYLEEQAAKEFIAWLLEK[Aib]KEFL-NH2; N-terminus assumed)
EC50 (human GLP-1 receptor; GLP1R CRE luc 0% HSA EC50 Mean Value, 0% HSA): 0.118 nM
EC50 (human GLP-1 receptor; [2]): 0.061 nM
EC50 ([1]; read-out: 4 h Cholesterol Efflux EC50, ABCA1-mediated efflux (CPT-cAMP induced minus non-induced)): 210 nM

Compound: CC[C@H](C)[C@H](NC(=O)[C@H](Cc1ccccc1)NC(=O)[C@H](CCC(=O)O)NC(=O)[C@H](CCCNC(=N)N)NC(=O)[C@@H](NC(=O)[C@H](C)NC(=O)[C@H](CCC(=O)O)NC(=O)CNC(=O)[C@H](CCC(=O)O)NC(=O)[C@H](CC(C)C)NC(=O)[C@H](Cc1ccc(O)cc1)NC(=O)[C@H](CO)NC(=O)[C@H](CO)NC(=O)[C@@H](NC(=O)[C@H](CC(=O)O)NC(=O)[C@H](CO)NC(=O)[C@@H](NC(=O)[C@H](Cc1ccccc1)NC(=O)[C@@H](NC(=O)CNC(=O)[C@H](CCC(=O)O)NC(=O)C(C)(C)NC(=O)[C@@H](N)Cc1c[nH]cn1)[C@@H](C)O)[C@@H](C)O)C(C)C)C(C)C)C(=O)N[C@@H](C)C(=O)N[C@@H](Cc1c[nH]c2ccccc12)C(=O)N[C@@H](CC(C)C)C(=O)N[C@H](C(=O)N[C@@H](CCC(=O)O)C(=O)N[C@@H](CCCNC(=N)N)C(=O)NC(C)(C)C(=O)N[C@@H](CCCNC(=N)N)C(=O)N[C@@H](CCC(=O)O)C(=O)N[C@@H](Cc1ccccc1)C(=O)N[C@@H](CC(C)C)C(N)=O)C(C)C [Compound 43] (H-H[Aib]EGTFTSDVSSYLEGEAVREFIAWLVER[Aib]REFL-NH2)
EC50 (human GLP-1 receptor; [3]): 0.086 nM
EC50 (human GLP-1 receptor; [2]): 0.041 nM
4 h Cholesterol Efflux Emax [1]: 82%

Compound: CC[C@H](C)[C@H](NC(=O)[C@H](Cc1ccccc1)NC(=O)[C@H](CCC(=O)O)NC(=O)[C@H](CCCCN)NC(=O)[C@@H](NC(=O)[C@H](C)NC(=O)[C@H](CCC(=O)O)NC(=O)CNC(=O)[C@H](CCC(=O)O)NC(=O)[C@H](CC(C)C)NC(=O)[C@H](Cc1ccc(O)cc1)NC(=O)[C@H](CO)NC(=O)[C@H](CO)NC(=O)[C@@H](NC(=O)[C@H](CC(=O)O)NC(=O)[C@H](CO)NC(=O)[C@@H](NC(=O)[C@H](Cc1ccccc1)NC(=O)[C@@H](NC(=O)CNC(=O)[C@H](CCC(=O)O)NC(=O)C(C)(C)NC(=O)[C@@H](N)Cc1c[nH]cn1)[C@@H](C)O)[C@@H](C)O)C(C)C)C(C)C)C(=O)N[C@@H](C)C(=O)N[C@@H](Cc1c[nH]c2ccccc12)C(=O)N[C@@H](CC(C)C)C(=O)N[C@H](C(=O)N[C@@H](CCC(=O)O)C(=O)N[C@@H](CCCCN)C(=O)N[C@H](C(=O)N[C@@H](CCCCN)C(=O)N[C@@H](CCC(=O)O)C(=O)N[C@@H](CCCCN)C(N)=O)C(C)C)C(C)C [Compound 110, [Aib8,Glu23,Val25,Glu34,Lys35,Val36,Lys37]-GLP-1-(7-37)-peptidyl-Glu-Lvs amide] (H-H[Aib]EGTFTSDVSSYLEGEAVKEFIAWLVEKVKEK-NH2)
EC50 (human GLP-1 receptor; [3]): 0.043 nM
EC50 (human GLP-1 receptor; [2]): 0.014 nM
4 h Cholesterol Efflux Emax [1]: 106%

Further lines, with some results ahead:

EC50 (human GLP-1 receptor; [2]): 0.062 nM
Compound: CC[C@H](C)[C@H](NC(=O)[C@H](Cc1ccccc1)NC(=O)[C@H](CCC(=O)O)NC(=O)[C@H](CCCCN)NC(=O)[C@@H](NC(=O)[C@H](C)NC(=O)[C@H](CCC(=O)O)NC(=O)CNC(=O)[C@H](CCC(=O)O)NC(=O)[C@H](CC(C)C)NC(=O)[C@H](Cc1ccc(O)cc1)NC(=O)[C@H](CO)NC(=O)[C@H](CO)NC(=O)[C@@H](NC(=O)[C@H](CC(=O)O)NC(=O)[C@H](CO)NC(=O)[C@@H](NC(=O)[C@H](Cc1ccccc1)NC(=O)[C@@H](NC(=O)CNC(=O)[C@H](CCC(=O)O)NC(=O)C(C)(C)NC(=O)[C@@H](N)Cc1c[nH]cn1)[C@@H](C)O)[C@@H](C)O)C(C)C)C(C)C)C(=O)N[C@@H](C)C(=O)N[C@@H](Cc1c[nH]c2ccccc12)C(=O)N[C@@H](CC(C)C)C(=O)N[C@H](C(=O)N[C@@H](CCC(=O)O)C(=O)N[C@@H](CCCCN)C(=O)NC(C)(C)C(=O)N[C@@H](CCCCN)C(=O)N[C@@H](Cc1c[nH]cn1)C(=O)N[C@@H](Cc1ccccc1)C(=O)N[C@@H](CC(C)C)C(N)=O)C(C)C [Compound 31, [Aib8,Glu23,Val25,Glu34,Lys35,Aib36,Lys37]-GLP-1-(7-37)-peptidyl-His-Phe-Leu amide] (H-H[Aib]EGTFTSDVSSYLEGEAVKEFIAWLVEK[Aib]KHFL-NH2)
4 h Cholesterol Efflux Emax [1]: 84%

EC50 (human GLP-1 receptor; [3]): 0.023 nM
EC50 (human GLP-1 receptor; [2]): 0.01 nM
Compound: CC[C@H](C)[C@H](NC(=O)[C@H](Cc1ccccc1)NC(=O)[C@H](CCC(=O)O)NC(=O)[C@H](CCCNC(=N)N)NC(=O)[C@@H](NC(=O)[C@H](C)NC(=O)[C@H](CCC(=O)O)NC(=O)[C@H](CCC(=O)O)NC(=O)[C@H](CCC(=O)O)NC(=O)[C@H](CCSC)NC(=O)[C@H](CCC(N)=O)NC(=O)[C@H](CCCCN)NC(=O)[C@H](CO)NC(=O)[C@H](CC(C)C)NC(=O)[C@H](CC(=O)O)NC(=O)[C@H](CO)NC(=O)[C@@H](NC(=O)[C@H](Cc1ccccc1)NC(=O)[C@@H](NC(=O)CNC(=O)[C@H](CCC(=O)O)NC(=O)C(C)(C)NC(=O)[C@@H](N)Cc1c[nH]cn1)[C@@H](C)O)[C@@H](C)O)C(C)C)C(=O)N[C@@H](CCC(=O)O)C(=O)N[C@@H](Cc1c[nH]c2ccccc12)C(=O)N[C@@H](CC(C)C)C(=O)N[C@@H](CCCCN)C(=O)N[C@@H](CC(N)=O)C(=O)N[C@@H](CCCCN)C(=O)NC(C)(C)C(=O)N[C@@H](CC(C)C)C(=O)N[C@@H](CCC(=O)O)C(=O)N[C@@H](Cc1ccccc1)C(=O)N[C@@H](CC(C)C)C(=O)N[C@@H](CCC(=O)O)C(=O)N[C@@H](CC(C)C)C(=O)N1CCC[C@H]1C(N)=O [Compound 40, [Aib2,Glu21,Lys29,Aib30,Leu31,Glu32,Phe33,Leu34,Glu35,Leu361-Exendin-4-(1-37)-peptide amide] (H-H[Aib]EGTFTSDLSKQMEEEAVREFIEWLKNK[Aib]LEFLELP-NH2; N-terminus assumed)
4 h Cholesterol Efflux Emax [1]: 91%

EC50 (human GLP-1 receptor; [3]): 0.034 nM
EC50 (human GLP-1 receptor; [2]): 0.011 nM
Compound: H-HAEGTFTSDVSSYLEGQAAKEFIAWLVEKVKEFLER-OH [Compound 130, [Glu34,Lys35,Val36,Lys37]-GLP-1-(7-37)-peptidyl-Glu-Phe-Leu-Glu-Arg]
4 h Cholesterol Efflux Emax [1]: 125%

From patent US20150344540A1, “NOVEL GLP-1 RECEPTOR AGONISTS WITH CHOLESTEROL EFFLUX ACTIVITY” (NOVO NORDISK A/S, priority 2012, published 2015)
